# In patent US20250320198A1, “SALT OF ENDOTHELIN A (ETA) RECEPTOR ANTAGONIST COMPOUND, AND PREPARATION METHOD THEREFOR AND MEDICAL USE THEREOF” (SHENZHEN SALUBRIS PHARMACEUTICALS CO., LTD, priority 2022, published 2025):
# Key:
# [1] = Research on compound microsome: prototype remaining and transformation to Atrasentan in human liver microsomes (+NADPH); format: in vitro ADME; conditions: for Prototype remaining quantity (%) Mean: human liver microsome (+NADPH), 37° C.
# Procedure: Human liver microsomes were all purchased from Rild Liver Disease Research (Shanghai) Co., Ltd.
# Reagents: dimethyl sulfoxide (DMSO), acetonitrile, formic acid, and propranolol (internal standard) are all commercially available.
# Instrument: Thermo Fisher Scientific LC-MS (U300 UPLC, TSQ QUANTUMN ULTRA triple quadrupole mass spectrometer).
# A certain amount of compound was precisely weighed and dissolved in DMSO to prepare a 10 mM stock solution, and the stock solution was diluted with a diluent (ACN:H2O=1:1) to a 100 μM working solution, and then diluted with a 0.1 M potassium phosphate buffer solution to a 3 μM administration solution for later use. 75 μL of liver microsomes were taken and added into 925 μL of a 0.1 M potassium phosphate buffer solution to be mixed uniformly to obtain a 1.5 mg/mL liver microsome suspension, and the liver microsome suspension was pre-incubated at 37° C. for 10 minutes. Preparation at 0 o'clock: 15 μL of the above liver microsome suspension was taken and added into a 6 mM NADPH solution, 150 μL of a propranolol acetonitrile solution was added immediately for precipitation, and then 15 μL of the above administration solution was added and mixed uniformly for later use. Preparation of samples at 20 minutes and 60 minutes: 15 μL of the administration solution was taken, 15 μL of the liver microsome suspension and 15 μL of the 6 mM NADPH solution were added and mixed uniformly, and a mixture was incubated at 37° C. for 20 minutes and 60 minutes, respectively. The preparation of the above samples was carried out using dual-pore parallel operation. When the above samples are incubated to the relevant time point, 150 μL of the propranolol acetonitrile solution was added to terminate the reaction. All the above samples were centrifuged at 4000 rpm for 5 minutes, and 100 μL of a supernatant was taken, added into 100 μL of ultrapure water and mixed uniformly for LC-MS/MS analysis. LC-MS/MS detection conditions are as follows:
# Chromatographic column: Waters ACQUITY™ PREMIER HSS T3, 50*2.1 mm, 1.8 μm.
# (§1) Mobile phase: water (0.1% formic acid)—acetonitrile. Perform gradient elution according to the table below.
# An initial 0 o'clock was taken as 100%, a relative residual content of the drug at each time point was calculated, and each time point of Atrasentan was taken as 100% to calculate the relative amount of transformation of the compound in the embodiment to Atrasentan.
# [2] = Study on stability of salts (chemical stability by HPLC); format: physicochemical
# [3] = Study on hygroscopicity by dynamic vapor sorption (DVS); format: physicochemical
# Procedure: Hygroscopicity of sulphate, phosphate, hydrochloride, and oxalate was evaluated using a dynamic vapor sorption (DVS). The test collected percentage changes in mass of samples under a constant temperature condition of 25° C. with changes in humidity.
# [4] = Pharmacokinetic study of compound in rats (Embodiment 13), intragastric administration; format: in vivo; conditions: SD rats
# Source text: SD rats: male, 200-300 g, purchased from Beijing Vital River Laboratory Animal Technology Co., Ltd.
# Reagents: dimethyl sulfoxide (DMSO), polyethylene glycol 400 (PEG-400), normal saline, heparin, acetonitrile, formic acid, and propranolol (internal standard) are all commercially available.
# Instrument: Thermo Fisher Scientific LC-MS/MS (U300 UPLC, TSQ QUANTUMN ULTRA triple quadrupole mass spectrometer).
# The compound was weighed and dissolved in a DMSO-PEG-400-normal saline (5:60:35, v/v/v) system. After intragastric administration to rats, 200 μL of venous blood was collected in a sodium-fluoride heparinized EP tube at 15 minutes, 30 minutes, 1 hour, 2 hours, 5 hours, 7 hours, and 24 hours after administration and centrifuged at 12000 rpm for 2 minutes. Plasma was taken and frozen and preserved at −80° C. for testing. A certain amount of samples for test was precisely weighed and dissolved in DMSO to 2 mg/mL as a stock solution. An appropriate amount of compound stock solution was accurately sucked, and diluted by adding acetonitrile to prepare a standard series solution. 20 μL of each of the above standard series solution was accurately sucked, 180 μL of blank plasma was added, and vortex mixing was performed to prepare plasma samples equivalent to plasma concentrations of 1 ng/mL, 3 ng/mL, 5 ng/mL, 10 ng/mL, 30 ng/mL, 100 ng/mL, 300 ng/mL, 1000 ng/mL, and 3000 ng/mL. Dual sample analysis was performed for each concentration to establish a standard curve. 30 μL of plasma was taken, 200 μL of an acetonitrile solution of internal standard propranolol (50 ng/mL) was added, vortex mixing was performed, then 100 μL of purified water was added, vortex mixing was performed again, a mixture was centrifuged at 4000 rpm for 5 minutes, and a supernatant was taken for LC-MS/MS analysis. LC-MS/MS detection conditions are as follows: Chromatographic column: Waters ACQUITY™ PREMIER HSS T3, 50*2.1 mm, 1.8 μm.
# as §1
# After LC-MS/MS detection of blood drug concentration, WinNonlin 6.1 software was used to calculate pharmacokinetic parameters using a non compartmental model method.
Compound,Prototype remaining quantity (%) Mean ([1]; time 0 min (taken as 100%)),Prototype remaining quantity (%) Mean ([1]; time 20 min),Prototype remaining quantity (%) Mean ([1]; time 60 min),other results
"CCCCN(CCCC)C(=O)CN1C[C@H](c2ccc3c(c2)OCO3)[C@@H](C(=O)OC(C)OC(=O)OCCNC)[C@@H]1c1ccc(OC)cc1 (stereo partly drawn) [Compound 5, 1-(((2-(methylamino)ethoxy)carbonyl)oxy)ethyl-(2R,3R,4S)-4-(benzo[d][1,3]dioxolane-5-yl)-1-[2-(dibutylamino)-2-oxoethyl]-2-(4-methoxyphenyl)pyrrolidine-3-carboxylate]",100.0%,0%,0%,
CCCCN(CCCC)C(=O)CN1C[C@H](c2ccc3c(c2)OCO3)[C@@H](C(=O)OC(C)OC(=O)OC(C)C)[C@@H]1c1ccc(OC)cc1.O=C(O)C(=O)O (some centres unmarked) [Oxalate],,,,"Stability (in words) ([2]; 25° C./60% RH and 40° C./75% RH, one week): good stability; Purity (area %) ([2]; 25° C./60% RH, one week): 99.39 area %; Purity (area %) ([2]; 40° C./75% RH, one week): 98.52 area %; Purity (area %) ([2]; Start): 99.56 area %; Hygroscopicity (in words) ([3]; 25° C.): lower hygroscopicity; Vapor sorption ([3]; 25° C./80% RH): 0.96%"
"CCCCN(CCCC)C(=O)CN1C[C@H](c2ccc3c(c2)OCO3)[C@@H](C(=O)OC(C)OC(=O)OC[C@@H](O)CO)[C@@H]1c1ccc(OC)cc1 (stereo partly drawn) [Compound 6, 1-((((S)-2,3-dihydroxypropoxy)carbonyl)oxy)ethyl-(2R,3R,4S)-4-(benzo[d][1,3]dioxolane-5-yl)-1-[2-(dibutylamino)-2-oxoethyl]-2-(4-methoxyphenyl)pyrrolidine-3-carboxylate]",100.0%,0.0%,0.7%,
"CCCCN(CCCC)C(=O)CN1C[C@H](c2ccc3c(c2)OCO3)[C@@H](C(=O)OC(C)OC(=O)OC)[C@@H]1c1ccc(OC)cc1 (stereo partly drawn) [Compound 4, 1-[(methoxycarbonyl)oxy]ethyl-(2R,3R,4S)-4-(benzo[d][1,3]dioxolane-5-yl)-1-[2-(dibutylamino)-2-oxoethyl]-2-(4-methoxyphenyl)pyrrolidine-3-carboxylate]",100.0%,0%,0%,Absorption after intragastric administration compared with Atrasentan (in words) [4]: better than that of Atrasentan; Exposure level in rats compared with the same dosage of Atrasentan (in words) [4]: higher than those of the same dosage of Atrasentan
"CCCCN(CCCC)C(=O)CN1C[C@H](c2ccc3c(c2)OCO3)[C@@H](C(=O)OCOC(=O)OCC)[C@@H]1c1ccc(OC)cc1 [Compound 1, 1-[(ethoxycarbonyl)oxy]methyl-(2R,3R,4S)-4-(benzo[d][1,3]dioxolane-5-yl)-1-[2-(dibutylamine)-2-oxoethyl]-2-(4-methoxyphenyl)pyrrolidine-3-carboxylate]",100.0%,0.5%,0.7%,
"CCCCN(CCCC)C(=O)CN1C[C@H](c2ccc3c(c2)OCO3)[C@@H](C(=O)OC(C)OC(=O)OCC)[C@@H]1c1ccc(OC)cc1 (stereo partly drawn) [Compound 2, 1-[(ethoxycarbonyl)oxy]ethyl(2R,3R,4S)-4-(benzo[d][1,3]dioxolane-5-yl)-1-[2-(dibutylamino)-2-oxoethyl]-2-(4-methoxyphenyl)pyrrolidine-3-carboxylate]",100.0%,67.8%,1.6%,
"CCCCN(CCCC)C(=O)CN1C[C@H](c2ccc3c(c2)OCO3)[C@@H](C(=O)OC(C)OC(=O)OC[C@@H]2COCCO2)[C@@H]1c1ccc(OC)cc1 (stereo partly drawn) [Compound 11, 1-(((((S)-1,4-dioxane-2-yl)methoxy)carbonyl)oxy)ethyl-(2R,3R,4S)-4-(benzo[d][1,3]dioxolane-5-yl)-1-[2-(dibutylamino)-2-oxoethyl]-2-(4-methoxyphenyl)pyrrolidine-3-carboxylate]",100.0%,0.5%,0.0%,
"CCCCN(CCCC)C(=O)CN1C[C@H](c2ccc3c(c2)OCO3)[C@@H](C(=O)OC(C)OC(=O)OCCO)[C@@H]1c1ccc(OC)cc1 (stereo partly drawn) [Compound 8, 1-(((2-hydroxyethoxy)carbonyl)oxy)ethyl-(2R,3R,4S)-4-(benzo[d][1,3]dioxolane-5-yl)-1-[2-(dibutylamino)-2-oxoethyl]-2-(4-methoxyphenyl)pyrrolidine-3--carboxylate]",100.0%,0.04%,0.03%,
"CCCCN(CCCC)C(=O)CN1C[C@H](c2ccc3c(c2)OCO3)[C@@H](C(=O)OC(C)OC(=O)OC[C@H]2COCCO2)[C@@H]1c1ccc(OC)cc1 (stereo partly drawn) [Compound 9, 1-(((((R)-1,4-dioxane-2-yl)methoxy)carbonyl)oxy)ethyl-(2R,3R,4S)-4-(benzo[d][1,3]dioxolane-5-yl)-1-[2-(dibutylamino)-2-oxoethyl]-2-(4-methoxyphenyl)pyrrolidine-3-carboxylate]",100.0%,0.1%,0.0%,
"CCCCN(CCCC)C(=O)CN1C[C@H](c2ccc3c(c2)OCO3)[C@@H](C(=O)O)[C@@H]1c1ccc(OC)cc1 [Atrasentan, (2R,3R,4S)-4-(benzo[d][1,3]dioxolan-5-yl)-1-[2-(dibutylamino)-2-oxoethyl]-2-(4-methoxyphenyl)pyrrolidine-3-carboxylic acid, reference compound]",100.0%,83.3%,50.3%,
"CCCCN(CCCC)C(=O)CN1C[C@H](c2ccc3c(c2)OCO3)[C@@H](C(=O)OC(C)OC(=O)OC(C)C)[C@@H]1c1ccc(OC)cc1 (stereo partly drawn) [Compound 3, 1-[(isopropoxycarbonyl)oxy]ethyl-(2R,3R,4S)-4-(benzo[d][1,3]dioxolane-5-yl)-1-[2-(dibutylamino)-2-oxoethyl]-2-(4-methoxyphenyl)pyrrolidine-3-carboxylate]",100.0%,0.04%,0.06%,Conversion into Atrasentan in human microsomes (in words) ([1]; human liver microsomes): fully converted into Atrasentan; Absorption after intragastric administration compared with Atrasentan (in words) [4]: better than that of Atrasentan; Exposure level in rats compared with the same dosage of Atrasentan (in words) [4]: higher than those of the same dosage of Atrasentan
"CCCCN(CCCC)C(=O)CN1C[C@H](c2ccc3c(c2)OCO3)[C@@H](C(=O)OC(C)OC(=O)OC2COC2)[C@@H]1c1ccc(OC)cc1 (stereo partly drawn) [Compound 10, 1-((((oxetane-3-yl)oxy)carbonyl)oxy)ethyl-(2R,3R,4S)-4-(benzo[d][1,3]dioxolane-5-yl)-1-[2-(dibutylamino)-2-oxoethyl]-2-(4-methoxyphenyl)pyrrolidine-3-carboxylate]",100.0%,0.0%,0.0%,
